Here are results for four molecules from patent publication US20110152267A1, “Compositions and Methods for Treating Hyperproliferative Disorders” (Texas Tech University System, priority 2009, published 2011).

The structures appear in SMILES notation.

In test [1] the test system is CRL-2076 normal human fibroblast cell line. Briefly: DIMSCAN cytotoxicity, fenretinide + L-threo-sphinganines 3:1 (Example B1). Type of test: cell-based. As to conditions: CRL-2076, 20% O2, 96 h. The protocol: (§1) Cytotoxicity Assay—Once again, cytotoxicity is determined using the DIMSCAN assay system (R. Proffitt et al., Cytometry 24, 204-213 (1996); T. Frgala et al., Mol Cancer Ther. 6:886-97, 2007). The system employs digital imaging microscopy to quantify viable cells, which selectively accumulate fluorescein diacetate to become brightly fluorescent. The system is capable of measuring cytotoxicity over a 4-5 log dynamic range by quenching the residual fluorescence of dead and dying cells with eosin Y and quantifying the total fluorescence of viable cells using digital thresholding. Measured fluorescence is directly proportionate to the number of viable cells. A comparison of the total fluorescence of a drug-treated cell population to the fluorescence of a similar number of untreated cells yields a survival fraction. In brief, 2000 to 10,000 cells/well (depending on size and growth rates) are replicate plated into 60 wells of a 96-well tissue culture plate in 0.1 mL of whole medium and allowed to attach overnight. Drug(s) are then added in 0.05 mL of whole medium to the final concentrations indicated. Drugs (fenretinide, and various chain length L-threo-sphinganines) were tested both as single agents and in a 3:1 ratio of fenretinide:sphinganine. C18-L-threo-sphinganine, or “safingol,” was also tested and results shown for reference. There are 12 wells treated per drug concentration. Twelve wells receive drug vehicle-only to the appropriate final concentration and serve as controls for the plate. Cells are incubated for 96 hours at 37° C. in ambient air with 5% CO2. Fluorescein diacetate is then added to each well in 0.05 mL media to a final concentration of 8 microgram/mL. Cells are incubated for a further 15 minutes at 37° C. and 0.03 mL of 0.5% eosin Y is added to each well. Total fluorescence of viable cells is then measured by digital imaging microscopy. Results were graphed as the ratio of the fluoresecence of drug-treated wells to non-drug treated control wells (i.e., Survival Fraction). All tests were performed at least twice. Representative results are shown.
(§2) The Combination Index (CI) is a term to describe mathematical modeling of the pharmacologic effects on cytotoxicity (cell death) of two drugs in combination based. Cytotoxic “synergy” is defined as a cell death affect which is greater than would be expected from a simple product of the single agent cytotoxicities alone (i.e. an “additive” effect). By Chou-Talalay analysis, a CI<0.9 on a Fraction Affected (“Fa”, i.e. fraction of cells killed) indicates synergy, with smaller numbers indicating greater synergy; a CI of 0.9-1.1 signifies an additive or near-additive effect; and a CI>1.1 means the drug combination is antagonistic.
(§3) Fenretinide and L-threo-sphinganines tested in normal human fibroblast (normal skin cell) cell lines, CRL-2091 and CRL-2076.

In test [2] the test system is CRL-2091 normal human fibroblast cell line. The test is described as above. Type of test: cell-based. As to conditions: CRL-2091, 20% O2, 96 h. The protocol:
as §1, §2, §3

For test [3], the system named is MDA-MB-231 breast adenocarcinoma cell line. Put plainly: DIMSCAN cytotoxicity, fenretinide + L-threo-sphinganines 3:1 (Example B14). Type of test: cell-based, human. The settings on record: MDA-MB-231, 20% O2, 96 h. As for the experimental part:
as §1, §2
(§4) Fenretinide and L-threo-sphinganines tested in human breast adenocarcinoma (breast cancer) cell lines, MCF-7 and MDA-MB-231.

Test [4] deals with MCF-7 breast adenocarcinoma cell line. The test is described as above. Type of test: cell-based, human. As to conditions: 96 h. As for the experimental part: as §1, §2, §4
Where [5] appears, read: 4-HPR 1.5 μM + L-threo-sphinganine 0.5 μM.
Where [6] appears, read: 4-HPR 3 μM + L-threo-sphinganine 1 μM.
The mark [7] stands for this setting: 4-HPR 6 μM + L-threo-sphinganine 2 μM.
Where [8] appears, read: 4-HPR 9 μM + L-threo-sphinganine 3 μM.

For `CCCCCCCCCCCC[C@H](O)[C@@H](N)CO` [C15], the “CI (Combination Index)” value is given as 1 in test [1] (setting [5]); greater than 1 in test [1] (setting [6]); greater than 1 in test [1] (setting [7]); greater than 1 in test [1] (setting [8]); greater than 1 in test [2] (setting [5]); greater than 1 in test [2] (setting [6]). Besides, the “CI (Combination Index)” value in test [2] (setting [7]) and in test [2] (setting [8]) was greater than 1 in each case. Also, the “Fa (fraction affected)” value in test [1] (setting [5]) stood at 0.08; in test [1] (setting [6]) it was 0.09; in test [1] (setting [7]), 0.06; in test [1] (setting [8]), 0.07; in test [2] (setting [5]), 0.26; in test [2] (setting [6]) it was 0.39. For the same molecule, the figures for the “Fa (fraction affected)” value in test [2] (setting [7]) and in test [2] (setting [8]) were 0.29 and 0.66, respectively.
Turning to `CCCCCCCCCCC[C@H](O)[C@@H](N)CO` [C14], the “CI (Combination Index)” value in test [1] (setting [5]), in test [1] (setting [6]), in test [1] (setting [7]), in test [1] (setting [8]), in test [2] (setting [5]) and in test [2] (setting [6]) was greater than 1 in each case. Further, the “CI (Combination Index)” value in test [2] (setting [7]) and in test [2] (setting [8]) was greater than 1 each time. For the same molecule, the “Fa (fraction affected)” value turned out to be 0.10 in test [1] (setting [5]); 0.10 in test [1] (setting [6]); 0.12 in test [1] (setting [7]); 0.08 in test [1] (setting [8]); 0.32 in test [2] (setting [5]); 0.40 in test [2] (setting [6]). Moreover, the “Fa (fraction affected)” value in test [2] (setting [7]) came out at 0.21; in test [2] (setting [8]), 0.69.
As to `CCCCCCCCC[C@H](O)[C@@H](N)CO` [C12], the “CI (Combination Index)” value in test [3] (setting [5]) turned out to be 1.5; in test [3] (setting [6]), 0.9; in test [3] (setting [7]) it was 1.6; in test [3] (setting [8]), 2.0; in test [4] (setting [5]), 1.0; in test [4] (setting [6]), 1.0. The “CI (Combination Index)” value in test [4] (setting [7]) is 0.9; in test [4] (setting [8]) it was 1.2; in test [1] (setting [5]) it was 1; in test [1] (setting [6]) it was greater than 1; in test [1] (setting [7]), greater than 1; in test [1] (setting [8]), greater than 1. In addition, the “CI (Combination Index)” value in test [2] (setting [5]) is greater than 1; in test [2] (setting [6]) it was 0.76; in test [2] (setting [7]) it was greater than 1; in test [2] (setting [8]) it was greater than 1. Besides, the “Fa (fraction affected)” value in test [3] (setting [5]) turned out to be 1E−07; in test [3] (setting [6]), 0.052; in test [3] (setting [7]) it was 0.272; in test [3] (setting [8]), 0.720; in test [4] (setting [5]) it was 0.217; in test [4] (setting [6]), 0.642. The “Fa (fraction affected)” value in test [4] (setting [7]) stood at 0.951; in test [4] (setting [8]), 0.975; in test [1] (setting [5]) it was 0.17; in test [1] (setting [6]), 0.30; in test [1] (setting [7]), 0.29; in test [1] (setting [8]), 0.30. For the same molecule, the “Fa (fraction affected)” value in test [2] (setting [5]) was 0.27; in test [2] (setting [6]), 0.44; in test [2] (setting [7]) it was 0.42; in test [2] (setting [8]) it was 0.54.
For the molecule `CCCCCCCCCCCCCCC[C@H](O)[C@@H](N)CO` [C18, (2S,3S)-2-amino-1,3-octadecanediol, reference compound], the “CI (Combination Index)” value worked out at 1.8 in test [3] (setting [5]); 1.8 in test [3] (setting [6]); 1.3 in test [3] (setting [7]); 0.7 in test [3] (setting [8]); 1.2 in test [4] (setting [5]); 0.6 in test [4] (setting [6]). For the same molecule, the “CI (Combination Index)” value in test [4] (setting [7]) is listed as 0.9; in test [4] (setting [8]) it was 0.6; in test [1] (setting [5]), greater than 1; in test [1] (setting [6]), 1; in test [1] (setting [7]), greater than 1; in test [1] (setting [8]) it was greater than 1. Besides, the “CI (Combination Index)” value is greater than 1 in test [2] (setting [5]), greater than 1 in test [2] (setting [6]), greater than 1 in test [2] (setting [7]) and 0.33 in test [2] (setting [8]). Besides, the “Fa (fraction affected)” value in test [3] (setting [5]) worked out at 0.088; in test [3] (setting [6]) it was 0.207; in test [3] (setting [7]), 0.597; in test [3] (setting [8]) it was 0.922; in test [4] (setting [5]), 0.243; in test [4] (setting [6]) it was 0.756. Also, the “Fa (fraction affected)” value was 0.824 in test [4] (setting [7]); 0.961 in test [4] (setting [8]); 0.20 in test [1] (setting [5]); 0.11 in test [1] (setting [6]); 0.35 in test [1] (setting [7]); 0.94 in test [1] (setting [8]). In addition, the “Fa (fraction affected)” value in test [2] (setting [5]) worked out at 0.16; in test [2] (setting [6]) it was 0.29; in test [2] (setting [7]), 0.29; in test [2] (setting [8]) it was 0.73.
